Patent publication US10983112B2, “Bile acid biomarkers for Niemann-Pick diseases, methods and uses therefor” (Washington University, priority 2014, dated 2021)

Experiments:
[1] = Sample stability of bile acid B in dried blood spots, whole blood, processed samples, stock and working solutions; type: physicochemical
Procedure: Sample stability. The storage stability of dried blood spots and processed sample stabilities in the autosampler were determined at the LQC and HQC concentration levels (n=3). Storage stability of bile acid B in dried blood spots was tested at −20° C. and room temperature for 66 days, and at 37° C. for 90 hours. In the autosampler, stability was tested over seven days by injecting the first batch of the validation samples. The LQC and HQC in whole blood were placed on benchtop at room temperature for 27 hours and then spotted onto newborn screening cards to examine stability of bile acid B in whole blood. Stock solution stability was established by quantification of samples from dilution of two stock solutions that have been stored at −20° C. for 91 days and at room temperature on the bench for 22 hours, respectively, to the final solution (500 ng/mL in water). The storage stability of internal standard working solution was tested at room temperature for 12 days. A fresh standard curve was established each time. Bile acid B was stable in dried blood spots in newborn screening cards for up to 66 days at room temperature storage.
Stability in whole blood, dried blood spots, processed samples, stock and working solutions. The allowable time bile acid B spiked whole blood sample can remain at room temperature prior to spoiling on a newborn screening card was determined with LQC and HQC blood samples, which were remained at room temperature for 27 hours prior to spotting. Three replicates were assessed and the accuracy (within ±4.5% RE) and precision (<7.5% CV) were within the quality control acceptance criteria stated above. Bile acid B is therefore considered stable in whole blood for 27 hours prior to spotting.
The stability of bile acid B in dried blood spots on the newborn screening cards stored at room temperature and −20° C. for 66 days and at 37° C. for 90 hours was assessed by comparisons of three replicates of stored LQC and HQC against freshly prepared calibration standards and QC samples. […] Processed sample stability was assessed by re-injection of LQC and HQC together with calibration curve from one accuracy/precision run after storage in the autosampler at 4° C. for 7 days.
Stock solution stability of bile acid B and internal standard in acetonitrile-water (1:1) was established for 22 hours at room temperature. The internal standard in aqueous working solution (1% sodium dodecyl sulfate (SDS) and 50 mM trisodium citrate at pH 12) was stable for 12 days at room temperature.

Hep G2 cells = assay: Biosynthesis of bile acids from cholestane-3β,5α,6β-triol in Hep G2 cells; type: in vitro ADME, human; conditions: 2.5 ng/mL, 24 h, conditioned medium
Procedure: To explore the biosynthetic route of the bile acids, the human hepatoblastoma-derived cell line Hep G2 was incubated with cholestane-3β,5α,6β-triol and 7,7,22,22,22-d4-cholestane-3β,5α,6β-triol. Hep G2 cells (1×10^6 cells/well) were seeded in a 6-well plate in triplicate and maintained in Dulbecco's modified Eagle's medium supplemented with 15% fetal calf serum and 100 U of penicillin G/mL and […] streptomycin sulfate at 37° C. in a humidified atmosphere with 5% CO2. Hep G2 cells were treated when they were 80% confluent. For the treatment, 100× stock solutions were made in DMSO for triol and d4-triol. DMSO concentration never exceeded 1% in the culture medium. […] The supernatant was transferred to a glass HPLC insert and analyzed immediately after preparation by the LC-MS/MS.
LC-MS/MS analysis was conducted on a Shimadzu (Columbia, Md.) Prominence UFLC system coupled with an Applied Biosystems/MDS Sciex (Ontario, Canada) 4000QTRAP mass spectrometer using multiple reaction monitoring (MRM). […] Data were acquired and analyzed by Analyst software (version 1.5.2). […] FIG. 40 depicts synthetic bile acid A detected by MRM transition m/z 407→407. FIG. 41 depicts bile acid A generated from cholestane-3β,5α,6β-triol in HepG2 cells and detected by MRM transition m/z 407→407. […]

[2] = rat; cited from earlier work

Structure (SMILES) | stock solution stability ([1]; acetonitrile-water (1:1), room temperature) | processed sample stability ([1]; autosampler at 4° C. for 7 days) | stability in dried blood spots on newborn screening cards ([1]; room temperature) | stability in whole blood prior to spotting ([1]; room temperature, LQC and HQC) | stability in dried blood spots on newborn screening cards ([1]; room temperature, listed as bile acid B) | stability in dried blood spots on newborn screening cards ([1]; shipping conditions (37° C.)) | stability in dried blood spots on newborn screening cards ([1]; −20° C.) | formation from cholestane-3β,5α,6β-triol or d4-triol (Hep G2 cells) | metabolite of cholestane-3β,5α,6β-triol [2]
C[C@H](CCC(=O)NCC(=O)O)[C@H]1CC[C@H]2[C@@H]3C[C@@H](O)[C@@]4(O)C[C@@H](O)CC[C@]4(C)[C@H]3CC[C@]12C [Bile acid B, N-(3β,5α,6β-trihydroxy-cholan-24-oyl)glycine] | 22 h | Stability was demonstrated | up to 66 days | 27 h | at least 66 days | 90 h | at least 66 days | No bile acid B was found | 
C[C@H](CCC(=O)O)[C@H]1CCC2C3C[C@@H](O)[C@@]4(O)C[C@@H](O)CC[C@]4(C)C3CC[C@@]21C (stereo partly drawn) [Bile acid A, 3β,5α,6β-trihydroxycholanic acid] |  |  |  |  |  |  |  |  | major metabolite
